Literature values as cited in patent US20070232672A1, “Pharmaceutical Composition And Method For Treating Neurodegenerative Disorders” (Myriad Genetics, Incorporated, priority 2004, published 2007).
Read-outs that look alike come from different tables or passages of the source.

What was measured:
[1] = for efficacy for treating AD: clinical trial (Aisen et al., Reines et al.), rofecoxib at 25 mg daily
[2] = Scali et al.
[3] = patients having mild cognitive impairment
Aβ42 [4] = settings: transgenic mouse model, Koo et al.
[5] = 50 mg and 100 mg doses, human subjects, Lotsch et al.
Aβ42 [6] = settings: CHO cells, Koo et al.

CS(=O)(=O)c1ccc(C2=C(c3ccccc3)C(=O)OC2)cc1 [rofecoxib]
efficacy for treating AD [1]: failed to show efficacy
neuroprotection [2]: provides neuroprotection
prevention of the development of Alzheimer's disease ([3]; large prevention trial): failed to prevent the development of Alzheimer's disease
patients who developed AD ([3]; placebo 4.5%): 6.4%

COc1ccc2cc([C@H](C)C(=O)O)ccc2c1 [Naproxen]
efficacy for treating AD [1]: failed to show efficacy

C[C@@H](C(=O)O)c1ccc(-c2ccccc2)c(F)c1 [(R)-2-(2-fluoro-4-biphenylyl)propionic acid]
inhibition of COX activity (COX): negligibly inhibits COX activity
Aβ42 lowering (Aβ42 [4]): lower Aβ42
analgesic effect [5]: produced an analgesic effect
Aβ42 lowering (Aβ42 [6]): lower Aβ42

CC12CC3CC(C)(C1)CC(N)(C3)C2 [memantine]
efficacy in treating mild-to-moderate AD ([1]; mild-to-moderate AD): showed efficacy
